{
  "source": "patent US20100075316A1",
  "about": "“METHOD FOR I[…] VITAMIN D METABOLISM” (priority 2006, published 2010)",
  "key": {"CYP24": {"tested_on": "CYP24", "assay": "CYP24 enzyme activity in untreated and calcitriol-treated human cancer cell lines", "format": "cell-based", "conditions": "for CYP24A1 enzyme activity profiles: baseline and calcitriol-induced", "description": "FIG. 2 is a graphical depiction of CYP24 enzymatic activity measured in untreated and calcitriol treated human cancer cell lines.\nThis Example provides an analysis of CYP24 enzyme activity in untreated and calcitriol-treated human (prostate, breast, lung and colon) cancer cell lines to characterize their capacity to catabolize calcitriol."}, "LNCaP": {"tested_on": "LNCaP", "conditions": "androgen dependent human prostate cancer cell line; cited from earlier work"}, "[1]": {"assay": "Serum calcitriol clearance in cancer patients by CYP24 genotype", "format": "in vivo, human", "conditions": "TT/TT genotype (positions 15752 and 15774 of SEQ ID NO:1) vs TC/TC; 30 patients, oral high doses of calcitriol; p-value=0.0377", "method": "Elimination half life was calculated using the equation: T1/2=0.693/β, where β is the slope of the regression line of the terminal log serum calcitriol concentration versus time.\nThis Example provides an analysis of clinical ramifications of certain CYP24 polymorphisms. To obtain the data presented in this Example, we analyzed CYP24 polymorphisms in the intron between exon 9 and 10 in DNA samples obtained from 30 cancer patients treated with high doses of orally administered calcitriol. […] (Smith DC, et al., Clin Cancer Res. 1999; 5: 1339-1345)."}, "PC3": {"tested_on": "PC3", "conditions": "PC3, androgen independent human prostate cancer cells; cited from earlier work"}, "advanced prostate cancer": {"tested_on": "advanced prostate cancer", "conditions": "randomized trial, men with advanced prostate cancer; cited from earlier work"}, "CYP24 mRNA": {"tested_on": "CYP24 mRNA", "assay": "Semi-quantitative RT-PCR of CYP24 exon 11-12 transcripts before and after calcitriol treatment", "format": "cell-based, human", "conditions": "after calcitriol treatment", "description": "FIGS. 3A-3D provide graphical representations of CYP24 mRNA splicing patterns and cDNA amplification profiles. FIG. 3A provides a graphical map of the CYP24 gene from exon 9 through exon 11, an example of primer locations for obtaining cDNA using RT-PCR, and resulting products in the case of correct (280 bp) and aberrant (880 bp) splicing. FIG. 3B provides a graphical map of the CYP24 gene from exon 11 through exon 12 and RT-PCR cDNA product sizes for correctly spliced CYP24 mRNA from a CYP24 gene lacking a predictive SNP (150 bp), as well as the inclusion of intron 12 sequences in aberrantly spliced CYP24 mRNA when the predictive SNP is present (302 by transcript). FIG. 3C is a photographic representation of cDNA amplification products of unspliced or spliced CYP24 mRNA across exons 9-11 of the CYP24 mRNA. FIG. 3D is a photographic representation of cDNA amplification products across exons 11-12 of correctly spliced (150 bp) or aberrantly spliced (302 bp) CYP24 mRNA from various cancer cell lines.\nCalcitriol treatment (T) modulated the relative expression of the two transcripts differently in the three prostate cancer cell lines. CYP24 enzyme activity is associated with the expression of the lower molecular weight transcript in the three prostate cancer cell lines as shown in Table 3 (D3=calcitriol), which describes the relationship between CYP24 protein activity phenotypes and exon 11-12 transcript size before (“C” in FIG. 3) and after (“T” in FIG. 3) calcitriol treatment in prostate cancer cell lines."}, "DU145": {"tested_on": "DU145", "conditions": "DU145, androgen independent human prostate cancer cells; cited from earlier work"}},
  "data": [
    {"smiles": "C=C1/C(=C\\C=C2/CCC[C@]3(C)[C@@H]([C@H](C)CCCC(C)(C)O)CC[C@@H]23)C[C@@H](O)C[C@@H]1O", "note": "[calcitriol]", "values": [
      {"measurement": "baseline and calcitriol-induced CYP24 enzyme profile", "setting": "CYP24; A549 lung cancer cells", "result": "high baseline and calcitriol induced CYP24 activity"},
      {"measurement": "CYP24A1 enzyme activity profiles", "setting": "CYP24; DU145 prostate cancer cells", "result": "high baseline and calcitriol induced CYP24 activity"},
      {"measurement": "CYP24A1 enzyme activity profiles", "setting": "CYP24; DU145 prostate cancer cells, listed as D3", "result": "High baseline & D3 inducible"},
      {"measurement": "baseline and calcitriol-induced CYP24 enzyme profile", "setting": "CYP24; H520 lung cancer cells", "result": "negligible baseline and calcitriol-induced CYP24 activity"},
      {"measurement": "baseline and calcitriol-induced CYP24 enzyme profile", "setting": "CYP24; HCT116 colon cancer cells", "result": "high baseline and calcitriol induced CYP24 activity"},
      {"measurement": "baseline and calcitriol-induced CYP24 enzyme profile", "setting": "CYP24; HT29 colon cancer cells", "result": "barely detectable baseline CYP24 activity that is calcitriol-induced"},
      {"measurement": "CYP24A1 enzyme activity profiles", "setting": "CYP24; LNCaP prostate cancer cells", "result": "negligible baseline and calcitriol-induced CYP24 activity"},
      {"measurement": "CYP24A1 enzyme activity profiles", "setting": "CYP24; LNCaP prostate cancer cells, listed as D3", "result": "Negligible: baseline & D3 inducible"},
      {"measurement": "baseline and calcitriol-induced CYP24 enzyme profile", "setting": "CYP24; MCF7 breast cancer cells", "result": "barely detectable baseline CYP24 activity that is calcitriol-induced"},
      {"measurement": "baseline and calcitriol-induced CYP24 enzyme profile", "setting": "CYP24; MDA231 breast cancer cells", "result": "high baseline and calcitriol induced CYP24 activity"},
      {"measurement": "CYP24A1 enzyme activity profiles", "setting": "CYP24; PC3 prostate cancer cells", "result": "barely detectable baseline CYP24 activity that is calcitriol-induced"},
      {"measurement": "CYP24A1 enzyme activity profiles", "setting": "CYP24; PC3 prostate cancer cells, listed as D3", "result": "Negligible baseline & high D3 inducible"},
      {"measurement": "sensitivity to calcitriol growth inhibition", "setting": "LNCaP", "result": "sensitive to calcitriol growth inhibition"},
      {"measurement": "serum calcitriol elimination half life (T1/2)", "setting": "[1]", "result": "significantly lower T1/2 than the TC/TC genotype"},
      {"measurement": "sensitivity to calcitriol growth inhibition", "setting": "PC3", "result": "relatively resistant to calcitriol growth inhibition"},
      {"measurement": "potentiation of antitumor activity of docetaxel", "setting": "advanced prostate cancer", "result": "potentiate the antitumor activity of docetaxel"},
      {"measurement": "Exon 11-12 size (bp), D3 treated", "setting": "CYP24 mRNA; DU145 prostate cancer cells", "result": 135, "unit": "bp"},
      {"measurement": "Exon 11-12 size (bp), D3 treated", "setting": "CYP24 mRNA; LNCaP prostate cancer cells", "result": 307, "unit": "bp"},
      {"measurement": "Exon 11-12 size (bp), D3 treated", "setting": "CYP24 mRNA; PC3 prostate cancer cells", "result": 135, "unit": "bp"},
      {"measurement": "sensitivity to calcitriol growth inhibition", "setting": "DU145", "result": "relatively resistant to calcitriol growth inhibition"}
    ]}
  ]
}
